Measurements published in patent US9040545B2, “Heterocyclyl pyrazolopyrimidine analogues as selective JAK inhibitors” (Cellzome Limited, priority 2010, dated 2015).

Target: T1, JAK3 (Homo sapiens, UniProt P52333)
T1 construct: endogenous in cells; host or cells: mixed Molt4/Ramos lysate (1:2)
T1 sequence (P52333 1-1124): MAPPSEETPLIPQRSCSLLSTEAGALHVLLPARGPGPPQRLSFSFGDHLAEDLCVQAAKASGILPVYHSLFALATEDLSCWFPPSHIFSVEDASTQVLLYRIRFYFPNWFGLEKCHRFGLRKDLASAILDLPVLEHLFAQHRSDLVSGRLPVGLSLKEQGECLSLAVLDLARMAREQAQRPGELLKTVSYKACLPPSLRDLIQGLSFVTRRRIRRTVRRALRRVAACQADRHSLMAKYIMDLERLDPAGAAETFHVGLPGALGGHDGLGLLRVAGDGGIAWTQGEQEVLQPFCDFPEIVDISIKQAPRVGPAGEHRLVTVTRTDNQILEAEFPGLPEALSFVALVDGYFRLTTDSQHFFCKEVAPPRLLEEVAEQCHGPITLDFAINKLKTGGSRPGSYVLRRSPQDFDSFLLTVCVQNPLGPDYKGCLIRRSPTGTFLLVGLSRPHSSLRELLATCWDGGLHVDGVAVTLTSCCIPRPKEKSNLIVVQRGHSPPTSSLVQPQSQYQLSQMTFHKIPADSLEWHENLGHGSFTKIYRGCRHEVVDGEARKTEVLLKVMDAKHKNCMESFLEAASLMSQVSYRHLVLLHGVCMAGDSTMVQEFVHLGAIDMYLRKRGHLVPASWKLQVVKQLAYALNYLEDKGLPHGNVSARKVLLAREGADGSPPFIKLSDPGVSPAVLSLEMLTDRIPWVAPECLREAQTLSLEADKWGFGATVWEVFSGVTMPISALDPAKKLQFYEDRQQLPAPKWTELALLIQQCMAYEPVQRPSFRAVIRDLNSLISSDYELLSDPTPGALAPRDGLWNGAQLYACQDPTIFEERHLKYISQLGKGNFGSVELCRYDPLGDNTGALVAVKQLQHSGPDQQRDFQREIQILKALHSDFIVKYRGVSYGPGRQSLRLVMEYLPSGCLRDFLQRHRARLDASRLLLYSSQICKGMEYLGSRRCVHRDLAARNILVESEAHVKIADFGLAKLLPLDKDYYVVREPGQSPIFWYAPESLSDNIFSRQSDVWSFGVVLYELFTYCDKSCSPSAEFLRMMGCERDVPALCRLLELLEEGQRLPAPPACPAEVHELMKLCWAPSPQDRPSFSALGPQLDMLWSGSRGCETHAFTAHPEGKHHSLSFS
Assay: Kinobeads assay, JAK3
Assay type: binding
Details: mixed Molt4/Ramos lysate, read-out: Inhibition values (IC50) JAK3
Summary of the method: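 Competition binding in mixed Molt4/Ramos cell lysate (1:2, 10 mg/mL protein) with Kinobeads carrying immobilized aminopyrido-pyrimidine ligand, 3 h in cold room; 9-step 1:3 compound dilution series from 5 mM DMSO stock. Bead-bound JAK2/JAK3 eluted and quantified by antibody dot blot with infrared detection; IC50 from dose-response curves.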

Row | SMILES | IC50 [µM]
1 | CN(C)CCCn1cc(Nc2ncc3cnn(Cc4c(F)c(F)cc(N5CCOCC5)c4F)c3n2)cn1 [Example 42, N-(1-(3-(Dimethylamino)propyl)-1H-pyrazol-4-yl)-1-(2,3,6-trifluoro-5-morpholinobenzyl)-1H-pyrazolo[3,4-d]pyrimidin-6-amine] | < 0.1
2 | CN(C)CCCn1cc(Nc2ncc3cnn(Cc4cccc(N5CCOCC5)c4F)c3n2)cn1 [Example 43, N-(1-(3-(Dimethylamino)propyl)-1H-pyrazol-4-yl)-1-(2-fluoro-3-morpholinobenzyl)-1H-pyrazolo[3,4-d]pyrimidin-6-amine] | < 0.1
3 | OCCn1cc(Nc2ncc3cnn(Cc4cc(N5CCOCC5)ccc4F)c3n2)cn1 [Example 44, 2-(4-((1-(2-Fluoro-5-morpholinobenzyl)-1H-pyrazolo[3,4-d]pyrimidin-6-yl)amino)-1H-pyrazol-1-yl)ethanol] | < 0.1
4 | OCCn1cc(Nc2ncc3cnn(Cc4c(F)c(F)cc(N5CCOCC5)c4F)c3n2)cn1 [Example 45, 2-(4-((1-(2,3,6-Trifluoro-5-morpholinobenzyl)-1H-pyrazolo[3,4-d]pyrimidin-6-yl)amino)-1H-pyrazol-1-yl)ethanol] | < 0.1
5 | O=C1COCCN1c1cccc(Cn2ncc3cnc(Nc4cnn(CCO)c4)nc32)c1F [Example 46, 4-(2-Fluoro-3-((6-((1-(2-hydroxyethyl)-1H-pyrazol-4-yl)amino)-1H-pyrazolo[3,4-d]pyrimidin-1-yl)methyl)phenyl)morpholin-3-one] | < 0.1
6 | OCCn1cc(Nc2ncc3cnn(Cc4cccc(N5CCNCC5)c4)c3n2)cn1 [Example 47, 2-(4-((1-(3-(piperazin-1-yl)benzyl)-1H-pyrazolo[3,4-d]pyrimidin-6-yl)amino)-1H-pyrazol-1-yl)ethanol] | < 0.1
7 | c1cc(Cn2ncc3cnc(Nc4cnn(CC5CCCNC5)c4)nc32)cc(N2CCOCC2)c1 (stereo not shown) [Example 48, 1-(3-Morpholinobenzyl)-N-(1-(piperidin-3-ylmethyl)-1H-pyrazol-4-yl)-1H-pyrazolo[3,4-d]pyrimidin-6-amine] | < 0.1
8 | Cn1cc(Nc2ncc3cnn(Cc4cc(F)cc(N5CCOCC5)c4)c3n2)cn1 [Example 49, 1-(3-Fluoro-5-morpholinobenzyl)-N-(1-methyl-1H-pyrazol-4-yl)-1H-pyrazolo[3,4-d]pyrimidin-6-amine] | < 0.1
9 | CN(C)CCCn1cc(Nc2ncc3cnn(Cc4cccc(N5CCOCC5=O)c4F)c3n2)cn1 [Example 50, 4-(3-((6-((1-(3-(Dimethylamino)propyl)-1H-pyrazol-4-yl)amino)-1H-pyrazolo[3,4-d]pyrimidin-1-yl)methyl)-2-fluorophenyl)morpholin-3-one] | < 0.1
10 | OCCn1cc(Nc2ncc3cnn(Cc4cc(F)cc(N5CCOCC5)c4)c3n2)cn1 [Example 51, 2-(4-((1-(3-Fluoro-5-morpholinobenzyl)-1H-pyrazolo[3,4-d]pyrimidin-6-yl)amino)-1H-pyrazol-1-yl)ethanol] | < 0.1
11 | Cn1cc(Nc2ncc3cnn(Cc4cc(F)cc(N5CCOCC5=O)c4)c3n2)cn1 [Example 52, 4-(3-Fluoro-5-((6-((1-methyl-1H-pyrazol-4-yl)amino)-1H-pyrazolo[3,4-d]pyrimidin-1-yl)methyl)phenyl)morpholin-3-one] | < 0.1
12 | Cn1cc(Nc2ncc3cnn(Cc4cc(N5CCOCC5=O)cc(F)c4F)c3n2)cn1 [Example 53, 4-(3,4-Difluoro-5-((6-((1-methyl-1H-pyrazol-4-yl)amino)-1H-pyrazolo[3,4-d]pyrimidin-1-yl)methyl)phenyl)morpholin-3-one] | < 0.1
13 | Cn1cc(Nc2ncc3cnn(Cc4cccc(N5CCNCC5=O)c4F)c3n2)cn1 [Example 54, 1-(2-Fluoro-3-((6-((1-methyl-1H-pyrazol-4-yl)amino)-1H-pyrazolo[3,4-d]pyrimidin-1-yl)methyl)phenyl)piperazin-2-one] | < 0.1
14 | O=C1CNCCN1c1cccc(Cn2ncc3cnc(Nc4cnn(CCO)c4)nc32)c1F [Example 55, 1-(2-Fluoro-3-((6-((1-(2-hydroxyethyl)-1H-pyrazol-4-yl)amino)-1H-pyrazolo[3,4-d]pyrimidin-1-yl)methyl)phenyl)piperazin-2-one] | < 0.1
15 | OCCn1cc(Nc2ncc3cnn(Cc4cc(N5CCOCC5)cc(F)c4F)c3n2)cn1 [Example 56, 2-(4-((1-(2,3-Difluoro-5-morpholinobenzyl)-1H-pyrazolo[3,4-d]pyrimidin-6-yl)amino)-1H-pyrazol-1-yl)ethanol] | < 0.1
16 | O=C1CNCCN1c1cccc(Cn2ncc3cnc(Nc4cnn(CCO)c4)nc32)c1 [Example 57, 1-(3-((6-((1-(2-Hydroxyethyl)-1H-pyrazol-4-yl)amino)-1H-pyrazolo[3,4-d]pyrimidin-1-yl)methyl)phenyl)piperazin-2-one] | < 0.1
17 | O=C1COCCN1c1cc(F)cc(Cn2ncc3cnc(Nc4cnn(CCO)c4)nc32)c1 [Example 58, 4-(3-Fluoro-5-((6-((1-(2-hydroxyethyl)-1H-pyrazol-4-yl)amino)-1H-pyrazolo[3,4-d]pyrimidin-1-yl)methyl)phenyl)morpholin-3-one] | < 0.1
18 | O=C1COCCN1c1cc(F)c(F)c(Cn2ncc3cnc(Nc4cnn(CCO)c4)nc32)c1 [Example 59, 4-(3,4-Difluoro-5-((6-((1-(2-hydroxyethyl)-1H-pyrazol-4-yl)amino)-1H-pyrazolo[3,4-d]pyrimidin-1-yl)methyl)phenyl)morpholin-3-one] | < 0.1
19 | c1cc(Cn2ncc3cnc(Nc4cnn(CC5CCNC5)c4)nc32)cc(N2CCOCC2)c1 (stereo not shown) [Example 60, 1-(3-Morpholinobenzyl)-N-(1-(pyrrolidin-3-ylmethyl)-1H-pyrazol-4-yl)-1H-pyrazolo[3,4-d]pyrimidin-6-amine] | < 0.1
20 | Cn1cc(Nc2ncc3cnn(Cc4c(F)c(F)cc(N5CCOCC5=O)c4F)c3n2)cn1 [Example 61, 4-(2,4,5-Trifluoro-3-((6-((1-methyl-1H-pyrazol-4-yl)amino)-1H-pyrazolo[3,4-d]pyrimidin-1-yl)methyl)phenyl)morpholin-3-one] | < 0.1
21 | O=C1COCCN1c1cc(F)c(F)c(Cn2ncc3cnc(Nc4cnn(CCO)c4)nc32)c1F [Example 62, 4-(2,4,5-Trifluoro-3-((6-((1-(2-hydroxyethyl)-1H-pyrazol-4-yl)amino)-1H-pyrazolo[3,4-d]pyrimidin-1-yl)methyl)phenyl)morpholin-3-one] | < 0.1
22 | O=C1CNCCN1c1cc(F)cc(Cn2ncc3cnc(Nc4cnn(CCO)c4)nc32)c1 [Example 63, 1-(3-Fluoro-5-((6-((1-(2-hydroxyethyl)-1H-pyrazol-4-yl)amino)-1H-pyrazolo[3,4-d]pyrimidin-1-yl)methyl)phenyl)piperazin-2-one] | < 0.1
23 | Cn1cc(Nc2ncc3cnn(Cc4cc(F)cc(N5CCNCC5=O)c4)c3n2)cn1 [Example 64, 1-(3-Fluoro-5-((6-((1-methyl-1H-pyrazol-4-yl)amino)-1H-pyrazolo[3,4-d]pyrimidin-1-yl)methyl)phenyl)piperazin-2-one] | < 0.1
24 | COC1CN(c2cccc(Cn3ncc4cnc(Nc5cnn(C)c5)nc43)c2)C1 [Example 65, 1-(3-(3-Methoxyazetidin-1-yl)benzyl)-N-(1-methyl-1H-pyrazol-4-yl)-1H-pyrazolo[3,4-d]pyrimidin-6-amine] | < 0.1
25 | Cn1cc(Nc2ncc3cnn(Cc4c(F)c(F)cc(N5CCNCC5)c4F)c3n2)cn1 [Example 66, N-(1-Methyl-1H-pyrazol-4-yl)-1-(2,3,6-trifluoro-5-(piperazin-1-yl)benzyl)-1H-pyrazolo[3,4-d]pyrimidin-6-amine] | < 0.1
26 | Cn1cc(Nc2ncc3cnn(Cc4cccc(N5CCNCC5)c4F)c3n2)cn1 [Example 67, 1-(2-Fluoro-3-(piperazin-1-yl)benzyl)-N-(1-methyl-1H-pyrazol-4-yl)-1H-pyrazolo[3,4-d]pyrimidin-6-amine] | < 0.1
27 | CNC(=O)Cn1cc(Nc2ncc3cnn(Cc4cc(F)cc(N5CCOCC5=O)c4)c3n2)cn1 [Example 68, 2-(4-((1-(3-Fluoro-5-(3-oxomorpholino)benzyl)-1H-pyrazolo[3,4-d]pyrimidin-6-yl)amino)-1H-pyrazol-1-yl)-N-methylacetamide] | < 0.1
28 | Cn1cc(Nc2ncc3cnn(Cc4c(F)ccc(N5CCOCC5=O)c4F)c3n2)cn1 [Example 69, 4-(2,4-Difluoro-3-((6-((1-methyl-1H-pyrazol-4-yl)amino)-1H-pyrazolo[3,4-d]pyrimidin-1-yl)methyl)phenyl)morpholin-3-one] | < 0.1
